Laboratory results from US20250221950A1, “GABA-CONTAINING COMPOSITION” (priority 2021, published 2025).
Entries after “also recorded” stand apart in the source; their conditions may differ. Ends that are not written are not given here.

Assays:
GLP-1 [1] = assay: Fructose-induced GLP-1 secretion, portal plasma ELISA (Example 9, FIG. 13); assay type: in vivo, mice
[2] = tested on: Healthy C57BL/6J male mice; assay: Food intake after glucose, fructose, isomerized sugar with or without GABA (Example 8, FIG. 11, 12); assay type: in vivo; settings: fructose 1 g/kg po alone, compared with control group (saline)
Method: Thereafter, the mice were fed at 10:00 on the test day, and the food intake by free-feeding was measured over time. […] The effect of GABA on the inhibitory action on fructose-induced satiety by glucose was examined. […] Thereafter, the mice were fed at 10:00 on the test day, and the food intake by free-feeding was measured over time.

[3] = tested on: afferent nerves in the hepatic branch of the vagus nerve; settings: administration into the hepatic portal vein; J Auton Nerv Syst. 1996; cited from earlier work
obese patients = settings: Bergmann et al. 2019, cited from earlier work
[4] = tested on: Healthy C57BL/6J male mice; assay: Food intake after sucrose with or without GABA (Example 10, FIG. 14); assay type: in vivo
Method: Thereafter, the mice were fed at 10:00 on the test day, and the food intake by free-feeding was measured over time.

C57BL/6J male mice = assay: Conditioned taste aversion test (saccharin preference, Example 3, FIG. 3); assay type: in vivo; settings: lithium chloride 3 mmol/kg intraperitoneal
Method: C57BL/6J male mice reared in individual cages were given two bottles of water only for 2 hours from 10:00 to 12:00 for 5 days, whereby the mice were acclimated to the water restriction schedule. On day 6, a 0.15% saccharin solution was presented for 30 minutes, and thereafter, lithium chloride (3 mmol/kg) was intraperitoneally administered, whereby the mice were made to acquire an aversion to the taste of the saccharin solution (conditioning). In the same manner, a control group to which physiological saline (10 mL/kg) was intragastrically administered and a test group to which GABA (200 mg/kg) was intragastrically administered were prepared. On day 7 serving as a rest day, the above-described water restriction schedule was performed. On day 8 serving as a test day, two bottles of a 0.15% saccharin solution and water were simultaneously presented for 30 minutes, and the preference of the saccharin solution (saccharin intake/total intake of two bottles×100, %) was determined.

[5] = tested on: Healthy C57BL/6J male mice; assay: Food intake after GABA, enteral nutrient or both 30 minutes before feeding, healthy mice (Example 2, FIG. 2); assay type: in vivo
Method: Saline (40 ml/kg, po), GABA (200 mg/kg, po), EnsureH (40 ml/kg, po, 1.5 kcal/g) which is an enteral nutrient manufactured by Abbott Japan LLC, or EnsureH+GABA (GABA 200 mg/kg in Ensure, 40 ml/kg, po) were administered from 9:15. The mice were fed 30 minutes after administration, and freely fed. […] At 0.5 h or after, the cumulative food intake (kcal) of the forcibly administered solution and the feed taken was shown (FIG. 2).

sham-operated mice = assay: Food intake after intragastric GABA in sham-operated mice (FIG. 1B); assay type: in vivo; settings: GABA 200 mg/kg intragastric
Method: (§1) In order to examine the involvement of the vagus nerve which is a visceral sensory nerve, the food intake reducing effect by intragastric administration of GABA was examined using sensory nerve disorder model mice by subcutaneous administration of capsaicin or subdiaphragmatic vagotomized mice. The sensory nerve disorder model mice by subcutaneous administration of capsaicin were prepared as follows. 50 mg/kg of capsaicin (5 ml/kg, solution composition: 10% ethanol, 10% Tween 80, 80% physiological saline) was subcutaneously administered to C57BL/6J male mice under tribromoethanol (200 mg/kg, intraperitoneal administration (ip)) anesthesia, and after 2 days, 50 mg/kg of capsaicin was subcutaneously administered under similar anesthesia. Further, after 2 days, 10 mg/kg of capsaicin was intraperitoneally administered under no anesthesia. After a recovery period of 5 to 7 days, an experiment of food intake was performed. In sham operation and subdiaphragmatic vagotomy, surgery was performed on C57BL/6J male mice under tribromoethanol (200 mg/kg, ip) anesthesia. […] All the mice were fasted overnight (16 hours) on the day before the experiment of food intake, then intragastrically administered a single dose of physiological saline or GABA (200 mg/kg) from 9:45, and fed at 10:00, and the food intake by free-feeding was measured over time. […]

vagal afferent nerves = assay: pERK1/2 immunostaining of nodose ganglion, nucleus tractus solitarius and area postrema (Example 4, FIG. 4, 5); assay type: in vivo, mice; settings: 30 minutes
Method: C57BL/6J male mice were acclimated to the environment and experimental work by preliminary rearing and handling for 1 week or more in individual cages. […] They were post-fixed, and a frozen section specimen was prepared. Using this frozen section specimen, immunostaining of phosphorylated ERK1/2 (pERK1/2), which is a neural activation marker, was performed, and each organ section was photographed with a fluorescence microscope and analyzed.

[6] = tested on: sensory nerve disorder model mice by subcutaneous administration of capsaicin; assay: Food intake after intragastric GABA in capsaicin sensory nerve disorder model mice (FIG. 1B); assay type: in vivo; settings: GABA 200 mg/kg intragastric, capsaicin treatment
Method: as §1

GIP [7] = assay: Isomerized sugar-induced GIP secretion, portal plasma ELISA (Example 9, FIG. 13); settings: GABA 60 mg/kg po with glucose+fructose 1 g/kg each
GLP-1 [8] = assay: GLP-1 secretion after glucose with or without GABA, portal plasma ELISA (Example 7, FIG. 10); assay type: in vivo, mice; settings: addition of GABA (2, 20, 200 mg/kg) to glucose 1 g/kg oral, 15 minutes
[9] = tested on: Healthy C57BL/6J male mice; assay: Food intake after intragastric GABA just before feeding in fasted healthy mice (Example 1, FIG. 1A); assay type: in vivo; settings: GABA solution 20 mg/kg or 200 mg/kg po just before feeding, compared with physiological saline
Method: As experimental animals, C57BL/6J male mice were used. The mice were acclimated to the environment by preliminary rearing for 1 week or more in individual cages in the free-eating and drinking environment at a temperature of 23±2° C., a humidity of 55±10%, a 12 hour light-dark cycle (light period: 7:30 to 19:30). The animal experiment was conducted with approval in accordance with the guidelines of the Committee for Animal Research of Kyoto Prefectural University. […] In each administration, the mice were intragastrically administered (po) a single dose of physiological saline as a control group and GABA (2 mg/kg, 20 mg/kg, 200 mg/kg) as a test group at a dose of 10 ml/kg using a sonde (stainless steel feeding needle). […] The amount of the feed taken is expressed as the cumulative food intake (kcal) or the food intake at each time (kcal) (FIG. 1A). The cumulative food intake (kcal) also includes energy of administered GABA (3.95 kcal/g).

GLP-1 [10] = assay: Blood total GLP-1 concentration 30 minutes after intragastric administration (Example 5, FIG. 6); assay type: in vivo, mice
Method: (§2) Healthy C57BL/6J male mice were fasted for 16 hours from 18:00 the day before the experiment. At 10:00, various solutions shown in the figure were intragastrically administered (40 ml/kg). Thirty minutes after administration, blood was collected from the portal vein under isoflurane anesthesia. An anticoagulant (heparin (final concentration 50 IU/ml)) and a peptide degradation inhibitor (aprotinin (final concentration 500 KIU/ml) and vildagliptin (final concentration 10 μM)) were added in advance to the sampling syringe. The collected blood was cooled and centrifuged and stored at −80° C. until the obtained plasma was analyzed. The total GIP concentration (A) and the total GLP-1 concentration (B) in the blood were analyzed using ELISA kits (EZGLP1T-36K and EZRMGIP-55K) manufactured by Millipore Corporation.

GIP [11] = assay: Blood total GIP concentration 30 minutes after intragastric administration (Example 5, FIG. 6); assay type: in vivo, mice
Method: as §2

human subjects = assay: Human test: VAS satiety and appetite, and calorie intake of a lunch box after GABA intake (Example 6); assay type: in vivo; settings: GABA 100 mg before lunch box, versus placebo
Method: It was examined whether GABA administration also affects the food intake in humans. In 13 human subjects (25 to 43 years old, 5 males and 8 females), changes in the food intake in the presence or absence of GABA administration were confirmed in the following test outline. Specifically, each subject was fasted from 21:00 on the day before the test, and subjective evaluation (satiety, hunger, appetite) was performed by the VAS questionnaire at 12:00 on the test day. Thereafter, a sample (placebo group: dextrin, GABA group: GABA 100 mg) was taken in together with 50 mL of water, and immediately after that, diet (lunch box) was taken. Immediately after diet, at 30 minutes, 60 minutes, and 120 minutes after diet, subjective evaluation (satiety, hunger, appetite) was performed again by the VAS questionnaire, and the remaining amount of a lunch box was photographed to calculate intake kcal.

[12] = tested on: subdiaphragmatic vagotomized mice; assay: Food intake after intragastric GABA in subdiaphragmatic vagotomized mice (FIG. 1B); assay type: in vivo; settings: GABA 200 mg/kg intragastric, afferent vagotomy
Method: as §1

GIP [13] = assay: Glucose-induced GIP secretion, portal plasma ELISA (Example 7, FIG. 10); assay type: in vivo, mice; settings: GABA (2, 20, 200 mg/kg) with glucose 1 g/kg oral, 15 minutes
[14] = GABA addition to enteral nutrients, 30 minutes after administration
[15] = GABA alone, intragastric 40 ml/kg, 30 minutes after administration
[16] = addition of GABA to the liquid food (EnsureH), 30 minutes

## O=C(CO)[C@@H](O)[C@H](O)[C@H](O)CO [fructose, reference compound]
GLP-1 [1]; fructose 1 g/kg po
  GLP-1 secretion: enhances
[2]
  food intake: suppressed

## Glucose-dependent insulinotropic polypeptide [GIP]
[3]
  neural activity of afferent nerves in the hepatic branch of the vagus nerve: does not result in any change
Obese patients; GIP administered simultaneously with GLP-1
  effect of GLP-1 on energy intake: attenuated

## glucagon-like peptide-1 (HAEGTFTSDVSSYLEGQAAKEFIAWLVKGR; ends and bridges not checked; UniProt P01275 98-127, looked up) [GLP-1, incretin hormone produced in endocrine L cells]
[3]
  neural activity of afferent nerves in the hepatic branch of the vagus nerve: significant increase
Obese patients; GLP-1 intravenously to obese patients
  energy intake: reduced

## OC[C@H]1O[C@@](CO)(O[C@H]2O[C@H](CO)[C@@H](O)[C@H](O)[C@H]2O)[C@@H](O)[C@@H]1O [sucrose, reference compound]
[4]; sucrose 2 g/kg po alone
  satiety inducing action (intake inhibitory action): not observed

## [Cl-].[Li+] [lithium chloride]
C57BL/6J male mice
  aversion: induces aversion
C57BL/6J male mice; conditioning day 6, test day 8
  preference of saccharin: reduced

## NCCCC(=O)O [GABA, γ-Aminobutyric acid]
[5]; GABA 200 mg/kg po alone 30 minutes before eating, compared with physiological saline
  eating behavior after the start of eating: not different
[5]; GABA addition to enteral nutrients, 30 minutes before feeding
  satiety via vagal afferent nerves: enhances
[5]; administration of GABA 30 minutes before diet
  food intake reducing effect: greatly reduced
sham-operated mice
  ability to induce the transient satiety or to suppress binge eating on a fasting condition (food intake): similarly observed
Vagal afferent nerves; GABA 200 mg/kg in EnsureH 40 ml/kg po, compared with EnsureH alone
  afferent vagal activation by nutrient (pERK1/2): significantly enhances
Vagal afferent nerves; GABA alone 200 mg/kg po, compared with physiological saline
  afferent vagal activity (neuron activities of vagal afferent nerves, nucleus tractus solitarius, area postrema; pERK1/2): does not affect
[6]
  ability to induce the transient satiety or to suppress binge eating on a fasting condition (food intake): impaired
GIP [7]
  isomerized sugar-induced GIP secretion: suppresses
GLP-1 [8]
  GLP-1 secretion: does not significantly enhance
[9]; 16 h fasted
  fasting food intake within 1 hour from the start of diet after fasting: significantly reduced
  food intake within 2 hours from the start of diet after fasting: reduces
[9]
  food intake after 2 hours from the start of eating: not always changed
GLP-1 [1]; GABA 60 mg/kg po
  fructose-induced GLP-1 secretion: further enhances
GLP-1 [1]; further addition of GABA 60 mg/kg po to glucose+fructose 1 g/kg each
  GLP-1 secretion: enhanced
GLP-1 [10]; [14]
  GLP-1 secretion (blood GLP-1 increase by nutrient): increase; also recorded: promotes
GLP-1 [10]; [15]
  blood GLP-1 concentration: no change
GLP-1 [10]; [16]
  GLP-1 concentration relative to liquid food alone: approximately double
GIP [11]; [14]
  GIP secretion (blood GIP increase by nutrient): suppress; also recorded: suppresses
GIP [11]; [15]
  blood GIP concentration: no change
GIP [11]; [16]
  GIP concentration relative to liquid food alone: about ⅓
Human subjects; immediately after diet, 30 minutes and 60 minutes after diet
  feeling of satiety (VAS): significantly increased
Human subjects
  appetite after diet (VAS): significantly reduced; also recorded: suppressed
  calorie intake: significantly low value
  feeling of satiety, area under the curve (AUC): significant increase; also recorded: significantly increased
[12]
  ability to induce the transient satiety or to suppress binge eating on a fasting condition (food intake): impaired
[4]; GABA 200 mg/kg po taken together with sucrose 2 g/kg po
  feeling of satiety: significantly induces
GIP [13]
  glucose-induced GIP secretion: suppresses
